Test results published in patent publication US20050101595A1, “N-containing cycloalkyl-substituted amino-thiazole derivatives and pharmaceutical compositions for inhibiting cell proliferation and methods for their use” (PFIZER INC., priority 2003, published 2005).
Counter-ions that a name gives are not always drawn. Like-named read-outs stand apart in the source and are kept apart here.

What was measured:
[1] = system: HCT-116 cell line; assay: Inhibition of cell growth, tetrazolium salt (MTT) assay; assay type: cell-based; conditions: for IC50: Homo sapiens, HCT-116, 120 h, MTT, three to five days, read-out: HCT-116 IC50; for HCT-116 % Inhibition at 0.25 μM: 0.25 μM compound
In short: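 MTT colorimetric viability: three-to-five-day compound exposure in 0.5% (v/v) DMSO at 37° C, MTT 0.2 mg/mL for the last 4 h, A540 compared with vehicle-treated cells.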

[2] = target: human CDK4 and genetically truncated (1-264) cyclin D3 (Homo sapiens, UniProt P11802); assay: Inhibition of CDK4/Cyclin D Retinoblastoma Kinase Activity; assay type: biochemical; conditions: for Ki: apparent Ki, CDK4/truncated cyclin D3, Rb fragment substrate, 25 μM ATP
In short: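 Human CDK4/truncated cyclin D3 (1-264) complex from baculovirus-infected insect cells, 5 nM, phosphorylating Rb fragment (residues 386-928, His-tagged) with 25 μM [32/33P]ATP in HEPES pH 7.4, MgCl2, 2% DMSO at 30° C. for 20 min (60 min for tight binders). Filter-captured radioactivity by phosphorimager; apparent Ki from competitive or tight-binding fits.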

[3] = target: CDK2/Cyclin A (Homo sapiens, UniProt P24941); assay: Inhibition of CDK2/Cyclin A Retinoblastoma Kinase Activity; assay type: biochemical; conditions: for Ki: apparent Ki, CDK2/proteolyzed cyclin A, Rb fragment substrate, 25 μM ATP
In short: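 Baculovirus-expressed CDK2 complexed with proteolyzed cyclin A (10 or 19 nM), Rb fragment substrate, 25 μM [32P/33P]ATP, HEPES pH 7.4, 30 °C for 60 or 75 min under initial-rate conditions. Filter capture and phosphorimager readout; apparent Ki fitted to competitive or tight-binding competitive inhibition.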

[4] = 0.03 μM compound, Table 2, 0.03 µM

Sequence of human CDK4 and genetically truncated (1-264) cyclin D3 (P11802 whole entry, the tested form may be a part): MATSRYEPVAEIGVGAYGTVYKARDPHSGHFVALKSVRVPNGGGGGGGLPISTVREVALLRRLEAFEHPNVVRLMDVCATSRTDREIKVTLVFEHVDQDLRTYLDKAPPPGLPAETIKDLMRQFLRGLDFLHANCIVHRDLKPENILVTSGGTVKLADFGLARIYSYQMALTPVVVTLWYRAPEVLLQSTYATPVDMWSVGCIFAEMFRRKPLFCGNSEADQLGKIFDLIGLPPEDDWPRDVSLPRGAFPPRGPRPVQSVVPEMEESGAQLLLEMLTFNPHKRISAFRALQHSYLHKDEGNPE
Sequence of human CDK4 and genetically truncated (1-264) cyclin D3 (P30281 1-264 partner): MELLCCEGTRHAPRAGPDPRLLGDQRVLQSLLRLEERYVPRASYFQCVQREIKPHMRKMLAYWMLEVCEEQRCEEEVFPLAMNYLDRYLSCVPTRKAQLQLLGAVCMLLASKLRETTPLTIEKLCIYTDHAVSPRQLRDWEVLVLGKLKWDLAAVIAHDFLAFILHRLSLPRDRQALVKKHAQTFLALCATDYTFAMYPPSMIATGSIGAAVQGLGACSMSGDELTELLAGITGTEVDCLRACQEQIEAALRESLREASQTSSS

Row | SMILES | IC50 ([1]; first HCT-116 column (c4)) | IC50 ([1]; second HCT-116 column (c5)) | Ki [2] | Ki [3] | HCT-116 % Inhibition at 0.1 μM ([1]; HCT-116 cells, at 0.1 μM) | HCT-116 5 Inhibition at 0.25 μM ([1]; HCT-116 cells) | CDK4 % Inhibition at 0.03 μM ([2]; at 0.03 μM) | CDK2 % Inhibition at 0.03 μM ([3]; at 0.03 μM) | also measured
1 | CN1CCC[C@H]1COc1ccc(S(=O)(=O)N2CCC(Nc3nc(N)c(C(=O)c4c(F)cccc4F)s3)CC2)cn1 [Example H12, 1-(4-Amino-2-{1-[6-(1-methyl-pyrrolidin-2S-ylmethoxy)-pyridine-3-sulfonyl]-piperidin-4-ylamino}-thiazol-5-yl)-1-(2,6-difluoro-phenyl)-methanone] | 58 nM | 400 nM | 0.39 nM | 0.88 nM | – | – | – | – | –
2 | N#Cc1cccc(C(=O)N2CCC(Nc3nc(N)c(C(=O)c4c(F)cccc4F)s3)CC2)c1 [Example Q77] | – | – | – | – | – | – | – | – | HCT-116 % Inhibition at 0.1 μM ([1]; 0.1 μM compound, HCT-116, Table 4): 8%; HCT-116 % Inhibition at 0.25 μM ([1]; HCT-116, Table 4): 33%; CDK4 % Inhibition at 0.03 μM ([2]; 0.03 μM compound, Table 4): 72%; CDK2 % Inhibition at 0.03 μM ([3]; 0.03 μM compound, Table 4): 44%
3 | Nc1nc(NC2CCN(S(=O)(=O)c3ccc(S(=O)(=O)c4ccc(C(F)(F)F)cn4)s3)CC2)sc1C(=O)c1c(F)cccc1F [Example P43] | – | – | – | – | – | – | – | – | HCT-116 % Inhibition at 0.1 μM ([1]; 0.1 μM compound, HCT-116, Table 3): 0%; HCT-116 % Inhibition at 0.25 μM ([1]; HCT-116, Table 3): 17%; CDK4 % Inhibition at 0.03 μM ([2]; 0.03 μM compound, Table 3): 57%; CDK2 % Inhibition at 0.03 μM ([3]; 0.03 μM compound, Table 3): 70%
4 | CCC(C(=O)N1CCC(Nc2nc(N)c(C(=O)c3c(F)cccc3F)s2)CC1)c1ccccc1 (stereo not drawn) [Example R10] | – | – | – | – | 0% | 40 | 29% | 5% | –
5 | CN(C)CCN(C)c1ccc(C(=O)N2CCC(Nc3nc(N)c(C(=O)c4c(F)cccc4F)s3)CC2)cn1 [Example G32, 1-{4-Amino-2-[1-(1-{6-[(2-dimethylamino-ethyl)-methyl-amino]-pyridin-3-yl}-methanoyl)-piperidin-4-ylamino]-thiazol-5-yl}-1-(2,6-difluoro-phenyl)-methanone Trifluoroacetic Acid Salt] | 4700 nM | > 5000 nM | 42 nM | 60 nM | – | – | – | – | –
6 | Nc1nc(NC2CCN(C(=O)[C@H](Cc3ccccc3)NS(=O)(=O)c3ccc([N+](=O)[O-])cc3)CC2)sc1C(=O)c1c(F)cccc1F [Example R74] | – | – | – | – | 0.12% | 42 | 20% | 3% | –
7 | Nc1nc(NC2CCN(C(=O)CC3CCCC3)CC2)sc1C(=O)c1c(F)cccc1F [Example R78] | – | – | – | – | 0% | 47 | 19% | 20% | –
8 | CC(C)(C)NCCOc1ccc(S(=O)(=O)N2CCC(Nc3nc(N)c(C(=O)c4c(F)cccc4F)s3)CC2)cn1 [Example H20, (4-Amino-2-{1-[6-(2-tert-butylamino-ethoxy)-pyridine-3-sulfonyl]-piperidin-4-ylamino}-thiazol-5-yl)-(2,6-difluoro-phenyl)-methanone Hydrochloride Salt] | 380 nM | 3000 nM | 0.51 nM | 1.5 nM | – | – | – | – | –
9 | CC(C)S(=O)(=O)c1csc(C(=O)N2CCC(Nc3nc(N)c(C(=O)c4c(F)cccc4F)s3)CC2)c1Cl [Example R62] | – | – | – | – | 0% | 38 | 78% | 65% | –
10 | COc1ccc(NC(=O)N2CCC(Nc3nc(N)c(C(=O)c4c(F)cccc4F)s3)CC2)cc1 [Example O84] | – | – | – | – | – | – | – | – | HCT-116 % Inhibition at 0.25 μM ([1]; HCT-116, Table 2, 0.25 µM): 42%; CDK4 % Inhibition at 0.03 μM [2, 4]: 14%; CDK2 % Inhibition At 0.03 μM [3, 4]: 23%
